Calls of active or inactive are those of the source. No cut-off for these calls is given here.
What was measured:
Hs 683 = assay: Growth inhibition of apoptosis-sensitive human Hs 683 cells after 72 hrs by MTT assay; type: functional; settings: Hs 683, 72 h
SK-MEL-28 [1] = assay: Growth inhibition of apoptosis-resistance human SK-MEL-28 cells after 72 hrs by MTT assay; type: functional; settings: SK-MEL-28, 72 h
B16-F10 = assay: Growth inhibition of apoptosis-resistance mouse B16F10 cells after 72 hrs by MTT assay; type: functional; settings: B16-F10, 72 h
[2] = Growth inhibition of apoptosis-resistance human U373 cells after 72 hrs by MTT assay; type: functional, U-373MG ATCC; settings: U373 MG
A549 [3] = assay: Growth inhibition of apoptosis-resistance human A549 cells after 72 hrs by MTT assay; type: functional; settings: A549, 72 h
A549 [4] = assay: Induction of apoptosis in apoptosis-resistance human A549 cells at GI50 after 72 hrs by phase contrast microscopic analysis; type: functional, cell-based
SK-MEL-28 [5] = assay: Induction of membrane permeabilization in apoptosis-resistance human SK-MEL-28 cells at GI50 after 72 hrs by propidium iodide staining-based flow cytometric analysis; type: functional, cell-based
SK-MEL-28 [6] = assay: Cytostatic activity against apoptosis-resistance human SK-MEL-28 cells assessed as cell growth at GI50 after 72 hrs by phase contrast microscopic analysis relative to control; type: functional
A549 [7] = assay: Cytostatic activity against apoptosis-resistance human A549 cells assessed as cell growth at GI50 after 72 hrs by phase contrast microscopic analysis relative to control; type: functional
A549 [8] = assay: Induction of membrane permeabilization in apoptosis-resistance human A549 cells at GI50 after 72 hrs by propidium iodide staining-based flow cytometric analysis; type: functional, cell-based
SK-MEL-28 [9] = assay: Induction of apoptosis in apoptosis-resistance human SK-MEL-28 cells at GI50 after 72 hrs by phase contrast microscopic analysis; type: functional, cell-based

SMILES: CCN(CC)C(=S)Sc1c(-c2ccccc2)[nH]c2ccc(Br)cc12
- GI50 (Hs 683): 26 µM
- GI50 (SK-MEL-28 [1]): 28 µM
- GI50 (B16-F10): 40 µM
- GI50 [2]: 36 µM
- GI50 (A549 [3]): 31 µM

SMILES: Cc1cc(C)n(-c2c(-c3ccccc3)[nH]c3ccccc23)n1
- GI50 (Hs 683): 67 µM
- GI50 (SK-MEL-28 [1]): 84 µM
- GI50 (B16-F10): > 100 µM
- GI50 [2]: 84 µM
- GI50 (A549 [3]): 61 µM

SMILES: Clc1ccc(Sc2c(-c3ccc(Br)cc3)[nH]c3ccccc23)cc1
- GI50 (Hs 683): 25 µM
- GI50 (SK-MEL-28 [1]): 26 µM
- GI50 (B16-F10): 35 µM
- GI50 [2]: 24 µM
- GI50 (A549 [3]): 26 µM

SMILES: S=C(Sc1c(-c2ccc(Br)cc2)[nH]c2ccccc12)N1CCOCC1
- GI50 (Hs 683): 32 µM
- GI50 (SK-MEL-28 [1]): 35 µM
- GI50 (B16-F10): 20 µM
- GI50 [2]: 43 µM
- GI50 (A549 [3]): 31 µM

SMILES: Clc1ccc(Oc2c(-c3ccc(Cl)cc3)[nH]c3ccc(Cl)cc23)cc1
- GI50 (Hs 683): 13 µM
- GI50 (SK-MEL-28 [1]): 19 µM
- GI50 (B16-F10): 10 µM
- GI50 [2]: 13 µM
- GI50 (A549 [3]): 10 µM

SMILES: O=C(Nc1c(-c2ccccc2)[nH]c2ccccc12)C12CC3CC(CC(C3)C1)C2
- GI50 (Hs 683): 69 µM
- GI50 (SK-MEL-28 [1]): 67 µM
- GI50 (B16-F10): 44 µM
- GI50 [2]: 38 µM
- GI50 (A549 [3]): 38 µM

SMILES: CCOC(=O)C1CCN(C(=S)Sc2c(-c3ccc(Br)cc3)[nH]c3ccc(C)cc23)CC1
- GI50 (Hs 683): 34 µM
- GI50 (SK-MEL-28 [1]): 52 µM
- GI50 (B16-F10): 37 µM
- GI50 [2]: 68 µM
- GI50 (A549 [3]): 37 µM

SMILES: Clc1ccc(/N=N/c2c(-c3ccc(Br)cc3)[nH]c3ccccc23)cc1
- GI50 (Hs 683): 31 µM
- GI50 (SK-MEL-28 [1]): 33 µM
- GI50 (B16-F10): 33 µM
- GI50 [2]: 33 µM
- GI50 (A549 [3]): 26 µM

SMILES: Cc1ccc2[nH]c(-c3ccccc3)c(-n3nc(C)cc3C)c2c1
- GI50 (Hs 683): 29 µM
- GI50 (SK-MEL-28 [1]): 33 µM
- GI50 (B16-F10): 40 µM
- GI50 [2]: 10 µM
- GI50 (A549 [3]): 26 µM

SMILES: OC1CCCN(C(=S)Sc2c(-c3ccc(Br)cc3)[nH]c3ccc(Cl)cc23)C1 (stereo unspecified)
- GI50 (Hs 683): 31 µM
- GI50 (SK-MEL-28 [1]): 34 µM
- GI50 (B16-F10): 37 µM
- GI50 [2]: 39 µM
- GI50 (A549 [3]): 29 µM

SMILES: Clc1ccc(Oc2c(-c3ccc(Cl)cc3)[nH]c3ccc(Br)cc23)cc1
- GI50 (Hs 683): 26 µM
- GI50 (SK-MEL-28 [1]): 28 µM
- GI50 (B16-F10): 29 µM
- GI50 [2]: 35 µM
- GI50 (A549 [3]): 30 µM

SMILES: OC1CCCN(C(=S)Sc2c(-c3ccc(Br)cc3)[nH]c3ccccc23)C1 (stereo unspecified)
- GI50 (Hs 683): 24 µM
- GI50 (SK-MEL-28 [1]): 28 µM
- GI50 (B16-F10): 29 µM
- GI50 [2]: 32 µM
- GI50 (A549 [3]): 24 µM

SMILES: CCOC(=O)C1CCN(C(=S)Sc2c(-c3ccc(Br)cc3)n(C)c3ccccc23)CC1
- GI50 (Hs 683): 85 µM
- GI50 (SK-MEL-28 [1]): 78 µM
- GI50 (B16-F10): 50 µM
- GI50 [2]: > 100 µM
- GI50 (A549 [3]): 72 µM

SMILES: Fc1ccc2[nH]c(-c3ccc(Cl)cc3)c(Oc3ccc(Cl)cc3)c2c1
- GI50 (Hs 683): 22 µM
- GI50 (SK-MEL-28 [1]): 24 µM
- GI50 (B16-F10): 14 µM
- GI50 [2]: 20 µM
- GI50 (A549 [3]): 22 µM

SMILES: CCN(CC)C(=S)Sc1c(-c2ccc(Br)cc2)[nH]c2ccc(Br)cc12
- GI50 (Hs 683): 22 µM
- GI50 (SK-MEL-28 [1]): 29 µM
- GI50 (B16-F10): 33 µM
- GI50 [2]: 9 µM
- GI50 (A549 [3]): 22 µM

SMILES: O=C(CSCc1ccccc1)Nc1c(-c2ccccc2)[nH]c2ccccc12
- GI50 (Hs 683): 33 µM
- GI50 (SK-MEL-28 [1]): 30 µM
- GI50 (B16-F10): 35 µM
- GI50 [2]: 47 µM
- GI50 (A549 [3]): 30 µM

SMILES: CCOC(=O)C1CCN(C(=S)Sc2c(-c3ccc(Br)cc3)[nH]c3ccc(Cl)cc23)CC1
- GI50 (Hs 683): 36 µM
- GI50 (SK-MEL-28 [1]): 39 µM
- GI50 (B16-F10): 21 µM
- GI50 [2]: 33 µM
- GI50 (A549 [3]): 34 µM

SMILES: COc1ccc2[nH]c(-c3ccc(Cl)cc3)c(Oc3ccc(Cl)cc3)c2c1
- GI50 (Hs 683): 54 µM
- GI50 (SK-MEL-28 [1]): 57 µM
- GI50 (B16-F10): 31 µM
- GI50 [2]: 50 µM
- GI50 (A549 [3]): 59 µM

SMILES: Cc1cc(C)n(-c2c(-c3ccccc3)[nH]c3ccc(F)cc23)n1
- GI50 (Hs 683): 32 µM
- GI50 (SK-MEL-28 [1]): 31 µM
- GI50 (B16-F10): 39 µM
- GI50 [2]: 47 µM
- GI50 (A549 [3]): 29 µM

SMILES: Cc1ccc2[nH]c(-c3ccc(Cl)cc3)c(-n3nc(C)cc3C)c2c1
- GI50 (Hs 683): 50 µM
- GI50 (SK-MEL-28 [1]): 46 µM
- GI50 (B16-F10): 65 µM
- GI50 [2]: 43 µM
- GI50 (A549 [3]): 42 µM

SMILES: Brc1ccc(/N=N/c2c(-c3ccc(Br)cc3)[nH]c3ccccc23)cc1
- GI50 (Hs 683): 24 µM
- GI50 (SK-MEL-28 [1]): 31 µM
- GI50 (B16-F10): 26 µM
- GI50 [2]: 30 µM
- GI50 (A549 [3]): 23 µM

SMILES: Clc1ccc(Oc2c(-c3ccc(Cl)cc3)[nH]c3ccccc23)cc1
- GI50 (Hs 683): 28 µM
- GI50 (SK-MEL-28 [1]): 28 µM
- GI50 (B16-F10): 29 µM
- GI50 [2]: 25 µM
- GI50 (A549 [3]): 25 µM

SMILES: Cc1cc(C)n(-c2c(-c3cccs3)[nH]c3ccccc23)n1
- GI50 (Hs 683): 58 µM
- GI50 (SK-MEL-28 [1]): 80 µM
- GI50 (B16-F10): 73 µM
- GI50 [2]: 90 µM
- GI50 (A549 [3]): 38 µM

SMILES: Clc1ccc(Sc2c(-c3ccc(Cl)cc3)[nH]c3ccccc23)cc1
- GI50 (Hs 683): 31 µM
- GI50 (SK-MEL-28 [1]): 34 µM
- Activity (A549 [4]): inactive
- Activity (SK-MEL-28 [5]): inactive
- Activity (SK-MEL-28 [6]): 10%
- Activity (A549 [7]): 30%
- GI50 (B16-F10): 28 µM
- Activity (A549 [8]): inactive
- GI50 [2]: 28 µM
- GI50 (A549 [3]): 27 µM
- Activity (SK-MEL-28 [9]): inactive

SMILES: O=C(COc1ccc(Cl)cc1)Nc1c(-c2ccccc2)[nH]c2ccccc12
- GI50 (Hs 683): 38 µM
- GI50 (SK-MEL-28 [1]): 48 µM
- GI50 (B16-F10): 32 µM
- GI50 [2]: 66 µM
- GI50 (A549 [3]): 37 µM

SMILES: Cc1onc(-c2c(F)cccc2Cl)c1C(=O)Nc1c(-c2ccccc2)[nH]c2ccccc12
- GI50 (Hs 683): 15 µM
- GI50 (SK-MEL-28 [1]): 13 µM
- GI50 (B16-F10): 22 µM
- GI50 [2]: 24 µM
- GI50 (A549 [3]): 9 µM

SMILES: CCOC(=O)c1ccc2[nH]c(-c3ccc(Cl)cc3)c(Oc3ccc(Cl)cc3)c2c1
- GI50 (Hs 683): 24 µM
- GI50 (SK-MEL-28 [1]): 28 µM
- GI50 (B16-F10): 20 µM
- GI50 [2]: 35 µM
- GI50 (A549 [3]): 28 µM

SMILES: Fc1cccc2c(Oc3ccc(Cl)cc3)c(-c3ccc(Cl)cc3)[nH]c12
- GI50 (Hs 683): 7 µM
- GI50 (SK-MEL-28 [1]): 8 µM
- GI50 (B16-F10): 8 µM
- GI50 [2]: 8 µM
- GI50 (A549 [3]): 7 µM

SMILES: CCOC(=O)C1CCN(C(=S)Sc2c(-c3ccc(Br)cc3)[nH]c3ccccc23)CC1
- GI50 (Hs 683): 36 µM
- GI50 (SK-MEL-28 [1]): 36 µM
- GI50 (B16-F10): 27 µM
- GI50 [2]: 35 µM
- GI50 (A549 [3]): 34 µM

SMILES: O=C(Nc1c(-c2ccccc2)[nH]c2ccc(Cl)cc12)c1cc2ccccc2oc1=O
- GI50 (Hs 683): 45 µM
- GI50 (SK-MEL-28 [1]): 55 µM
- GI50 (B16-F10): 27 µM
- GI50 [2]: 66 µM
- GI50 (A549 [3]): 37 µM

SMILES: Clc1ccc(Sc2c(-c3ccc(Cl)cc3)[nH]c3ccc(Cl)cc23)cc1
- GI50 (Hs 683): 31 µM
- GI50 (SK-MEL-28 [1]): 34 µM
- GI50 (B16-F10): 28 µM
- GI50 [2]: 28 µM
- GI50 (A549 [3]): 27 µM

SMILES: Cc1cc(C)n(-c2c(-c3cccs3)[nH]c3ccc(Cl)cc23)n1
- GI50 (Hs 683): 32 µM
- GI50 (SK-MEL-28 [1]): 35 µM
- GI50 (B16-F10): 36 µM
- GI50 [2]: 32 µM
- GI50 (A549 [3]): 40 µM

— ChEMBL document CHEMBL2380251, “Antiproliferative activity of 2,3-disubstituted indoles toward apoptosis-resistant cancers cells” (2013)
